Test results: article PMC12518996 (Frontiers in Pharmacology, 2025)

Key:
Type in all cases: in vitro ADME
AOX = target: T1, AOX (Homo sapiens, UniProt Q06278); experiment: Metabolite formation by recombinant human AOX; settings: trazodone 4 μM; 37 °C, 40 min
T1 sequence (Q06278 1-1338): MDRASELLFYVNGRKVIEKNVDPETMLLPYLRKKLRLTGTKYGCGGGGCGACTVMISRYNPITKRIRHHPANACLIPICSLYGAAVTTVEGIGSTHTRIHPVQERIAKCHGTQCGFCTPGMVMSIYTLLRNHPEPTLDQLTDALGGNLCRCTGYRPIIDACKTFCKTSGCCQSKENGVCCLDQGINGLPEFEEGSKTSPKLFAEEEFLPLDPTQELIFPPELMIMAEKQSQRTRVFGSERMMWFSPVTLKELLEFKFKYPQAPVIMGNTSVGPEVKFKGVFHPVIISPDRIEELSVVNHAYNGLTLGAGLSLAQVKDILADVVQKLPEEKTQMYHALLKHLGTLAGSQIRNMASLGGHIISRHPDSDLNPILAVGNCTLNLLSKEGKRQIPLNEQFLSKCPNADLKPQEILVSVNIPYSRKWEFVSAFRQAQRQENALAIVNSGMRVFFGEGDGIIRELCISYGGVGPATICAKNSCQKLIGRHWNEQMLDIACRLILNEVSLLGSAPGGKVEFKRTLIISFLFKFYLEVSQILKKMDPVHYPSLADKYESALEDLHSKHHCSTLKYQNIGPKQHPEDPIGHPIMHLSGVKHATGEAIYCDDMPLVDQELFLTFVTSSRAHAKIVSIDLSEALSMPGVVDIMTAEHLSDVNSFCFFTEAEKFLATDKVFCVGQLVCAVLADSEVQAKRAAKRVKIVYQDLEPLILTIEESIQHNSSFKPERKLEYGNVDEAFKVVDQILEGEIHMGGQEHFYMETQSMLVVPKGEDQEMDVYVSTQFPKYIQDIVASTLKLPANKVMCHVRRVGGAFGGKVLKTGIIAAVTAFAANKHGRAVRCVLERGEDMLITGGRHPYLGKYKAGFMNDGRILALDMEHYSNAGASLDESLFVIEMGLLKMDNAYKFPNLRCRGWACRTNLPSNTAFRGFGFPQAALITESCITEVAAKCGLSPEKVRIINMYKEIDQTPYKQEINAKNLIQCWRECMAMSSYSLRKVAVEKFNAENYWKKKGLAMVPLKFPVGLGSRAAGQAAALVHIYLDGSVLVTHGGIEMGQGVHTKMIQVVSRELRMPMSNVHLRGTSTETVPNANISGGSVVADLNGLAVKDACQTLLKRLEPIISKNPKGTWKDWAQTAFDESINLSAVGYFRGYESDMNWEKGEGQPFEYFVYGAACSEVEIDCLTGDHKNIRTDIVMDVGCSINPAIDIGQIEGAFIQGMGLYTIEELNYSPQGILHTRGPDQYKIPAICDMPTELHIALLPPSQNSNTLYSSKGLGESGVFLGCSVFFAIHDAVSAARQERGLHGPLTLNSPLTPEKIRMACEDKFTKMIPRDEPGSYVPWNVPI

CYP2C8 = target: T2, CYP2C8 (Homo sapiens, UniProt P10632); experiment: Metabolite formation by recombinant human CYP2C8; settings: trazodone 4 μM; NADPH; 37 °C, 40 min
T2 sequence (P10632 1-490): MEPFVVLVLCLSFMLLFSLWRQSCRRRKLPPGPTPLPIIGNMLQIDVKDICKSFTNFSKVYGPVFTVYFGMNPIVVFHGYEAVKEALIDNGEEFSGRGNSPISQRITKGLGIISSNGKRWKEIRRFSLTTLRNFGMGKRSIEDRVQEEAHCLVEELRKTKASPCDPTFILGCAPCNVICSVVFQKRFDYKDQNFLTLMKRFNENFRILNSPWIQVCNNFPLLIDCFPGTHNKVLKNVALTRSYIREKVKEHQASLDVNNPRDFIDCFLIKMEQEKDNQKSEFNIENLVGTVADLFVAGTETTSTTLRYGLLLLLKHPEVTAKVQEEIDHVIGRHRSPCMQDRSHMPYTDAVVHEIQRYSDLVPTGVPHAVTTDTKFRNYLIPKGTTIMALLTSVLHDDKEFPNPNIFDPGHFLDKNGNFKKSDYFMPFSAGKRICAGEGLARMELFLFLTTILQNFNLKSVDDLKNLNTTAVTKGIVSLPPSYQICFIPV
Procedure: (§1) To confirm the role of individual CYP isoforms in metabolizing trazodone, recombinant human and rat CYP enzymes were employed in separate incubations. […] Each reaction was terminated with acetonitrile, centrifuged, and the supernatant was analyzed by identical UHPLC-Orbitrap setup outlined in §2.2, allowing direct comparison of metabolite spectra across all in-vitro systems. […] This procedure helped confirm the contributions of individual isoforms to specific biotransformation reactions.

MAOA = target: T3, MAOA (Homo sapiens, UniProt P21397); experiment: Metabolite formation by recombinant human MAOA; settings: trazodone 4 μM; 37 °C, 40 min
T3 sequence (P21397 1-527): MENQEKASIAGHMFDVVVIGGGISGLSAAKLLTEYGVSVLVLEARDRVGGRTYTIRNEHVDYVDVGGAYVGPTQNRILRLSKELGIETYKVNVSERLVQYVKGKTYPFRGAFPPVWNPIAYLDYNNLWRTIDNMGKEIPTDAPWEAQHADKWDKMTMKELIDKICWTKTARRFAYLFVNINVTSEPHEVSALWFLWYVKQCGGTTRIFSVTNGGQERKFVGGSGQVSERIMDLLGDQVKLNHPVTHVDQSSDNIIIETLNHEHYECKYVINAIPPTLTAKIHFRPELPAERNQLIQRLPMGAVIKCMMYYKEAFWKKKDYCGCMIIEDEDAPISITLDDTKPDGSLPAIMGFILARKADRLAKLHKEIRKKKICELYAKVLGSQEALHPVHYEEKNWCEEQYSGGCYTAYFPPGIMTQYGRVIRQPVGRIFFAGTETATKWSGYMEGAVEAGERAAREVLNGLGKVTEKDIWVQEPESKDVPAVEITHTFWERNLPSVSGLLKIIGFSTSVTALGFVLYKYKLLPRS

CYP2E1 = CYP2E1 (Homo sapiens, UniProt P05181); experiment: Metabolite formation by recombinant human CYP2E1; settings: trazodone 4 μM; NADPH; 37 °C, 40 min
Procedure: as §1

Sequence of CYP2E1 (P05181 whole entry): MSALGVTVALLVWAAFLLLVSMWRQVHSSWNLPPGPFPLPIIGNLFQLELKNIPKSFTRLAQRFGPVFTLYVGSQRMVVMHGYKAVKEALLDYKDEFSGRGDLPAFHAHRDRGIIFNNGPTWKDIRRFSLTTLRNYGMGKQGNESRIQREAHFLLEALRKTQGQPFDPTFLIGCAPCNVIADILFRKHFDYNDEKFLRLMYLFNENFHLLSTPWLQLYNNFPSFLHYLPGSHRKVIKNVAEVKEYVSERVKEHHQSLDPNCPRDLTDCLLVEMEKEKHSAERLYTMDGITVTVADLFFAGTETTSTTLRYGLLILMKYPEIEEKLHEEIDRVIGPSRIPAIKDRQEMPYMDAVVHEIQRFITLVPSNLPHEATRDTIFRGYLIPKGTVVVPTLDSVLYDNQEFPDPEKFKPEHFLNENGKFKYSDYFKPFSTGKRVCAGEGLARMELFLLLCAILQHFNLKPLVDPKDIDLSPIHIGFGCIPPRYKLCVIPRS

Row | Compound | Formation of trazodone phase I metabolite by recombinant human AOX (as LC/MS peak areas) (AOX) | Formation of trazodone phase I metabolite by recombinant human CYP2C8 (as LC/MS peak areas) (CYP2C8) | Formation of trazodone phase I metabolite by recombinant human MAOA (as LC/MS peak areas) (MAOA) | Formation of trazodone phase I metabolite by recombinant human CYP2E1 (as LC/MS peak areas) (CYP2E1)
1 | O=c1n(CCCN2CCNCC2)nc2ccccn12 [Metabolite M15] | 0 | 26 | 0 | 0
2 | O=c1n(CCCO)nc2ccccn12 [Metabolite M20] | 0 | 0 | 0 | 0
3 | Clc1cccc(N2CCNCC2)c1 [mCPP, m-chlorophenylpiperazine] | 106 | 327 | 28 | 16
